This is an account of results in US10874670B2, “Substituted fused heteroaromatic compounds as kinase inhibitors and the use thereof” (IMPACT THERAPEUTICS, INC., priority 2017, dated 2020).

One test deals with ATM enzyme (human) (Homo sapiens, UniProt Q13315). As to the kind of experiment: ATM kinase assay (HTRF, GST-cMyc-p53 substrate). The note with it: 0.5 h, read-out: Inh (%) of ATM kinase; for inhibition at 0.01 µM: C 0.01 μm (final concentration of compound); for inhibition at 0.1 µM: C 0.1 μm (final concentration of compound); for inhibition at 1 µM: C 1 μm (final concentration of compound). Format: biochemical. In a few lines: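 Reaction with GST-cMyc-p53 substrate started with Mg/ATP, run 30 minutes at room temperature, then stopped with EDTA. Phospho-p53 (Ser15) detected by HTRF with Eu-labelled anti-phospho antibody and d2 anti-GST, signal as 10000×(Em665/Em620). Duplicates; IC50 from a curve fit with slope factor.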
ATM enzyme (human), sequence (Q13315 whole entry): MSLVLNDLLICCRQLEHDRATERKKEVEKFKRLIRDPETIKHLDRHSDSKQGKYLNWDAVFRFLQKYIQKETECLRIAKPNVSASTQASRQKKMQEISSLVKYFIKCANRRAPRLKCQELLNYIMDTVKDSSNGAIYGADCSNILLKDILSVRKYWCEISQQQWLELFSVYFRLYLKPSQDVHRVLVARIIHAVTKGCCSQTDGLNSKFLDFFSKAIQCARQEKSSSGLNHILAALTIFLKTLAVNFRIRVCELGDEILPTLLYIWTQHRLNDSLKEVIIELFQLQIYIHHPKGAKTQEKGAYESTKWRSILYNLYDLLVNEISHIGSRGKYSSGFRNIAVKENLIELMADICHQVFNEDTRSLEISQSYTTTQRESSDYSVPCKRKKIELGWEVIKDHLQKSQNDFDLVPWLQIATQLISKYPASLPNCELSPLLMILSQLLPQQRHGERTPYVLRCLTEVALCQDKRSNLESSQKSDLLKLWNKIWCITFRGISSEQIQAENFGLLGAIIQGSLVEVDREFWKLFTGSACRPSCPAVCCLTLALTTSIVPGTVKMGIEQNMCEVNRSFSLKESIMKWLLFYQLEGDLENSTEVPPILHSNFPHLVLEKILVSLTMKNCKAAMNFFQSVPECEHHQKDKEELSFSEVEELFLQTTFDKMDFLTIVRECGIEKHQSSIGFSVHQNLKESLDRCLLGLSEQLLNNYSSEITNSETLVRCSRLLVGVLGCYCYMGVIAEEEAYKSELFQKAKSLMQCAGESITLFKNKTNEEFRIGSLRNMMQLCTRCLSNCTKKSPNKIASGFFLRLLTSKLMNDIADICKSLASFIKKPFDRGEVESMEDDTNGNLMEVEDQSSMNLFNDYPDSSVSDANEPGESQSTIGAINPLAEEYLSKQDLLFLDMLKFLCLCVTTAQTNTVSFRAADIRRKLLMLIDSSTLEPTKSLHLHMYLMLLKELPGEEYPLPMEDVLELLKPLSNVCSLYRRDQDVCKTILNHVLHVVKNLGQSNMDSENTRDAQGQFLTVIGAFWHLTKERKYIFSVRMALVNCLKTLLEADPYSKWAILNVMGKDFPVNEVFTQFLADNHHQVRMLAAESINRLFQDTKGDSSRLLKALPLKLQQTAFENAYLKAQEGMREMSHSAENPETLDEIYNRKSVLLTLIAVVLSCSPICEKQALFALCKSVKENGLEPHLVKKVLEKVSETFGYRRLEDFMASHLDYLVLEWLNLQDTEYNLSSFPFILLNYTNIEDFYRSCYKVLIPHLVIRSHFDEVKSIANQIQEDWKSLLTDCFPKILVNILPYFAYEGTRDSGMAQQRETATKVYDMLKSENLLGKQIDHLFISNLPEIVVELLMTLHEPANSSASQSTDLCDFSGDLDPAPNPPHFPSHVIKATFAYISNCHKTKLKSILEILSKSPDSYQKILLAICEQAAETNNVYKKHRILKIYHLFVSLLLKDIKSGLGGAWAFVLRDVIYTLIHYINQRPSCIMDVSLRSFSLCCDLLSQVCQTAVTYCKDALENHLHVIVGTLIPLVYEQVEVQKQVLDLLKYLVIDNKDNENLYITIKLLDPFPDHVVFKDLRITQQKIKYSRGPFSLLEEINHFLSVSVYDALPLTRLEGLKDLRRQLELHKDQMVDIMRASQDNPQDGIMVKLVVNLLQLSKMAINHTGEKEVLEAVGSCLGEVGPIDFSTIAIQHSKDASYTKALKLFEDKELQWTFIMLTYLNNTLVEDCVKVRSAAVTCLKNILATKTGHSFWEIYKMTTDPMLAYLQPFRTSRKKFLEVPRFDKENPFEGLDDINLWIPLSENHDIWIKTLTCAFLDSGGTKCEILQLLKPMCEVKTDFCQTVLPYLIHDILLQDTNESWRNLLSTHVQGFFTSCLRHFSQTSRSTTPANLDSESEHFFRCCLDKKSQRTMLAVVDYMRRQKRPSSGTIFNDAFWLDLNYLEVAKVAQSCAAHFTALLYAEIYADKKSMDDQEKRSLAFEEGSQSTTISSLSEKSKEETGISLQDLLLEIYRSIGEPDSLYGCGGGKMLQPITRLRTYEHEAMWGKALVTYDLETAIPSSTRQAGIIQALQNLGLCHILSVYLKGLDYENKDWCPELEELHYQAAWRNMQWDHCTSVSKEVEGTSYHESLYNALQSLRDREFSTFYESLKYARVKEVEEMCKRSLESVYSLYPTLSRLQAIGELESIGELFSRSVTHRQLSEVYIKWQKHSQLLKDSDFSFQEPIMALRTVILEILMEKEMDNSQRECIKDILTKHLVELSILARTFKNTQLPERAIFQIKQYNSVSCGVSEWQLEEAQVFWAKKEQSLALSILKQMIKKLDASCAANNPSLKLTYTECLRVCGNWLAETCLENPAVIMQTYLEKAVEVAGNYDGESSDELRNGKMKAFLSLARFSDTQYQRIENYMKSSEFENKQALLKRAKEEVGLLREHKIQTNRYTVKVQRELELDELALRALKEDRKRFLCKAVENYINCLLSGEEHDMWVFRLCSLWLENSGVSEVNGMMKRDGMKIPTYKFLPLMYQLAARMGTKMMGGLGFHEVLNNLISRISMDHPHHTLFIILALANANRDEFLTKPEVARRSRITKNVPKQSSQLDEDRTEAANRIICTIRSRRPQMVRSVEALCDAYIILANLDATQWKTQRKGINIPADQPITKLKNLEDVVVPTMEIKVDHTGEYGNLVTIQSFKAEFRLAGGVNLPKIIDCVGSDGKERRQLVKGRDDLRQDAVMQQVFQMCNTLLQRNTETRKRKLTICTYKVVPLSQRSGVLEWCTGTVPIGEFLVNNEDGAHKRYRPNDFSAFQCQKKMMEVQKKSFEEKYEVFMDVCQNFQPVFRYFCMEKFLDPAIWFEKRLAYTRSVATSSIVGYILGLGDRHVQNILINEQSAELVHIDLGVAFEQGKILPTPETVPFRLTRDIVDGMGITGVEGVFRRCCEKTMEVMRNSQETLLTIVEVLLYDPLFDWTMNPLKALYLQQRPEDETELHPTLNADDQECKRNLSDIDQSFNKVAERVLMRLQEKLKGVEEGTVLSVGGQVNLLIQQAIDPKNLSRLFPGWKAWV

Test [1] relates to human colon cancer cell SW620. Put plainly: MTT assay, growth of SW620 cells, compounds combined with CPT-11. The test is classed as cell-based. The note with it: for IC50: Homo sapiens, SW-620, 120 h, combined with CPT-11 (205 nM medium), 5 days, MTT. Summed up:
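SW620 cells in RPMI 1640/10% FBS were exposed to 8-point compound dilutions (top 10 or 1 μM, 1% DMSO final) plus CPT-11 (205 nM in added medium) for 5 days at 37 °C. Viability by MTT (0.5 mg/mL, 4 h) absorbance; IC50 from sigmoidal fit.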

Test [2] has as its system human breast cancer cell MDA-MB-468. Put plainly: MTT assay, growth of MDA-MB-468 cells. The test is classed as cell-based. The conditions noted are these: for IC50: Homo sapiens, MDA-MB-468, 168 h, 7 days, MTT. How it is done:
Inhibitory Effects of N,N-dimethyl-3-(4-(1-(tetrahydro-2H-pyran-4-yl)-[1,2,4]triazolo[4,3-a]quinoxalin-8-yl)phenoxy)propan-1-amine and its Analogues on the Growth of Human Breast Cancer Cell MDA-MB-468 were Determined by MTT Assay
MDA-MB-468 cells were digested by trypsinase, centrifuged at 800 rpm for 5 minutes, the supernatant was discarded, resuspended with fresh medium (RPMI 1640 medium+10% FBS) and counted. The cells were seeded into 96-well cell culture plate with appropriate cell density and incubated overnight in a 37° C. 5% CO2 incubator. The stock solutions of the tested compound and the reference compound AZD0156 were serially diluted to 8 concentrations by DMSO at the ratios of 1:3 and 1:10, respectively: the first concentration was 100 μM or 1 μM, and the last concentration was negative control of DMSO (0 μM, the final concentration of DMSO was 1%). 5 μL of each concentration was added to 120 μL of medium (25 times diluted) and mixed by shaking. The overnight cells were taken and the culture medium was removed, 195 μL of fresh medium was added to each well, and 5 μL of diluted medium containing the corresponding concentration of the tested sample was added respectively, and the culture plate was then placed in the 5% CO2 cell culture incubator at 37° C. for 7 days (On the fourth day, the medium containing drugs was removed and fresh medium containing drugs was added for continuous cultivation). After removing the original solution, 100 μL of fresh serum-free DMEM medium containing MTT (0.5 mg/mL) was added to each well, the culture was continued. After 4 hours, the original solution was removed, 100 μL of DMSO was added into each well, the 96-well plates were shaken away from light for 10 minutes and placed in a multi-function reader to read the absorbance at the wavelength of 552/630/690 nm. GraphPad Prism 6.0 was used to analyze the data. The inhibitory activity of compounds on cell proliferation was plotted based on cell viability and compound concentration. The IC50 value was fitted by a sigmoidal dose response curve equation Y=100/(1+10^(Log C−Log IC50)), where C was the concentration of compound.
Table 4 summarizes the inhibitory effects of compounds on the growth of human breast cancer cell MDA-MB-468 (IC50).
On the technique in general: Tetrazolium assays rely on reduction of a dye to a coloured formazan, in cell work by metabolically active cells.

As usually defined, the IC50 is the concentration that gives 50% inhibition. For `C[C@@H]1CN(c2nnc3cnc4ccc(-c5ccc(OCCCN(C)C)cc5)cc4n23)C[C@H](C)N1C` [Example 23, N,N-dimethyl-3-(4-(1-((3S,5R)-3,4,5-trimethylpiperazin-1-yl)-[1,2,4]triazolo[4,3-a]quinoxalin-8-yl)phenoxy)propan-1-amine], the inhibition at 0.001 µM at ATM enzyme (human) (C 0.001 μm (final concentration of compound)) was 60%. For the same molecule, on ATM enzyme (human), the inhibition at 0.01 µM was found to be 81%, the inhibition at 0.1 µM is 99% and the inhibition at 1 µM amounted to 100%. For the same molecule, in test [1], the IC50 turned out to be 65.1 nM. Further, the “inhibitory effect on the growth of SW620 cells (in words)” value in test [1] (MTT assay, combined with CPT-11) was “inhibited the growth of SW620 cell”. Besides, the concentration for half-maximal inhibition (IC50) in test [2] came out at 54.1 nM. Further, the “inhibitory effect on the growth of MDA-MB-468 cells (in words)” value in test [2] (MTT assay) is given as “inhibited the growth of MDA-MB-468 cell”.
Consider `CN(C)CCCOc1ccc(-c2ccc3ncc4nnc(CN5CCOCC5)n4c3c2)cc1` [Example 27, N,N-dimethyl-3-(4-(1-(morpholinomethyl)-[1,2,4]triazolo[4,3-a]quinoxalin-8-yl)phenoxy)propan-1-amine], for which, on ATM enzyme (human), the inhibition at 0.01 µM was determined as 43%, the inhibition at 0.1 µM was determined as 84% and the inhibition at 1 µM amounted to 99%. Moreover, in test [1], the IC50 is 470 nM. Further, the concentration for half-maximal inhibition (IC50) in test [2] was found to be 452 nM.
Take `CN(C)CCCOc1ccc(-c2ccc3ncc4nnc(-c5c[nH]cn5)n4c3c2)cc1` [Example 29, N,N-dimethyl-3-(4-(1-(1H-imidazol-4-yl)-[1,2,4]triazolo[4,3-a]quinoxalin-8-yl)phenoxy)propan-1-amine]: on ATM enzyme (human), the inhibition at 0.01 µM was 34%, the inhibition at 0.1 µM amounted to 81% and the inhibition at 1 µM is 97%. Also, in test [1], the 50% inhibitory concentration (IC50) came out at 1210 nM. This molecule came in with an IC50 in test [2] of 860 nM.
As for `CN(C)CCCOc1ccc(-c2cc3c(cn2)ncc2nnc(C4CCOCC4)n23)cc1` [Example 30, N,N-dimethyl-3-(4-(1-(tetrahydro-2H-pyran-4-yl)pyrido[3,4-e][1,2,4]triazolo[4,3-a]pyrazin-8-yl)phenoxy)propan-1-amine], on ATM enzyme (human), the inhibition at 1 µM came out at 14%. Besides, the IC50 in test [1] and in test [2] was over 10000 nM throughout.
Consider `CN(C)CCCOc1ccc(-c2ccc3ncc4nnc(C5CCOCC5)n4c3n2)cc1` [Example 31, N,N-dimethyl-3-(4-(9-(tetrahydro-2H-pyran-4-yl)pyrido[3,2-e][1,2,4]triazolo[4,3-a]pyrazin-2-yl)phenoxy)propan-1-amine], for which, on ATM enzyme (human), the inhibition at 0.01 µM was 51%, the inhibition at 0.1 µM was 92% and the inhibition at 1 µM was found to be 100%. In addition, the half-inhibitory concentration (IC50) in test [1] came out at 262 nM. Besides, the 50% inhibitory concentration (IC50) in test [2] was 335 nM.
Consider `CN(C)CCCOc1ccc(-c2ccc3ncc4cnc(C5CCOCC5)n4c3c2)cc1` [Example 37, N,N-dimethyl-3-(4-(1-(tetrahydro-2H-pyran-4-yl)imidazo[1,5-a]quinoxalin-8-yl)phenoxy)propan-1-amine], for which the inhibition at 1 µM on ATM enzyme (human) stood at 18%. The 50% inhibitory concentration (IC50) in test [1] came to 4250 nM; in test [2], 4710 nM.
Turning to `CN(C)C1CCN(c2ccc(-c3ccc4ncc5nnc(C6CCOCC6)n5c4c3)cc2F)CC1` [Example 44, 1-(2-fluoro-4-(1-(tetrahydro-2H-pyran-4-yl)-[1,2,4]triazolo[4,3-a]quinoxalin-8-yl)phenyl)-N,N-dimethylpiperidin-4-amine], at ATM enzyme (human), the inhibition at 0.01 µM worked out at 67%, the inhibition at 0.1 µM came out at 94% and the inhibition at 1 µM worked out at 100%. Also, the half-inhibitory concentration (IC50) in test [1] stood at 152 nM. Further, the midpoint of inhibition in test [2], the IC50, lay at 183 nM.
For the molecule `CN(C)C1CCN(c2ccc(-c3ccc4ncc5nnc(C6CCOCC6)n5c4c3)cc2Cl)CC1` [Example 45, 1-(2-chloro-4-(1-(tetrahydro-2H-pyran-4-yl)-[1,2,4]triazolo[4,3-a]quinoxalin-8-yl)phenyl)-N,N-dimethylpiperidin-4-amine], at ATM enzyme (human), the inhibition at 0.01 µM turned out to be 67%, the inhibition at 0.1 µM amounted to 94% and the inhibition at 1 µM came out at 100%. In addition, the IC50 in test [1] stood at 170 nM. In test [2], this molecule registered an IC50 of 106 nM.
Consider `Cc1cc(-c2ccc3ncc4nnc(C5CCOCC5)n4c3c2)ccc1N1CCC(N(C)C)CC1` [Example 46, N,N-dimethyl-1-(2-methyl-4-(1-(tetrahydro-2H-pyran-4-yl)-[1,2,4]triazolo[4,3-a]quinoxalin-8-yl)phenyl)piperidin-4-amine], for which, at ATM enzyme (human), the inhibition at 1 µM was 100%. The values for the IC50 in test [1] and in test [2] were 612 nM and 930 nM, respectively.
On to `CN(C)C1CCN(c2ccc(-c3ccc4ncc5nnc(C6CCOCC6)n5c4c3)cc2C(F)(F)F)CC1` [Example 47, N,N-dimethyl-1-(4-(1-(tetrahydro-2H-pyran-4-yl)-[1,2,4]triazolo[4,3-a]quinoxalin-8-yl)-2-(trifluoromethyl)phenyl)piperidin-4-amine], for which, at ATM enzyme (human), the inhibition at 0.01 µM came to 72%, the inhibition at 0.1 µM was determined as 96% and the inhibition at 1 µM worked out at 100%. Moreover, the IC50 in test [1] amounted to 128 nM. This molecule also returned a half-inhibitory concentration (IC50) in test [2] of 145 nM.
For `CN(C)C1CCN(c2ccc(-c3ccc4ncc5nnc(C6CCOCC6)n5c4c3)c(F)c2)CC1` [Example 48, 1-(3-fluoro-4-(1-(tetrahydro-2H-pyran-4-yl)-[1,2,4]triazolo[4,3-a]quinoxalin-8-yl)phenyl)-N,N-dimethylpiperidin-4-amine], in that order: 62%, 93%, 100%, 184 nM and 161 nM.
`CN(C)C1CCN(c2ccc(-c3ccc4ncc5nnc(C6CCOCC6)n5c4c3)c(Cl)c2)CC1` [Example 49, 1-(3-chloro-4-(1-(tetrahydro-2H-pyran-4-yl)-[1,2,4]triazolo[4,3-a]quinoxalin-8-yl)phenyl)-N,N-dimethylpiperidin-4-amine]: the inhibition at 1 µM on ATM enzyme (human) is 100%. The results for the IC50 in test [1] and in test [2] were 1030 nM and 1580 nM, respectively.
For `Cc1cc(N2CCC(N(C)C)CC2)ccc1-c1ccc2ncc3nnc(C4CCOCC4)n3c2c1` [Example 50, N,N-dimethyl-1-(3-methyl-4-(1-(tetrahydro-2H-pyran-4-yl)-[1,2,4]triazolo[4,3-a]quinoxalin-8-yl)phenyl)piperidin-4-amine], in that order: 80%, over 10000 nM and over 100000 nM.
The like results for `CN(C)C1CCN(c2ccc(-c3ccc4ncc5nnc(C6CCOCC6)n5c4c3)c(C(F)(F)F)c2)CC1` [Example 51, N,N-dimethyl-1-(4-(1-(tetrahydro-2H-pyran-4-yl)-[1,2,4]triazolo[4,3-a]quinoxalin-8-yl)-3-(trifluoromethyl)phenyl)piperidin-4-amine] were, in that order, 74%, over 10000 nM and 3680 nM.
The like results for `CN(C)C1CCN(c2ccc(-c3ccc4ncc5nnc(C6CCOCC6)n5c4c3)nc2)CC1` [Example 52, N,N-dimethyl-1-(6-(1-(tetrahydro-2H-pyran-4-yl)-[1,2,4]triazolo[4,3-a]quinoxalin-8-yl)pyridin-3-yl)piperidin-4-amine] were, in that order, 98%, over 10000 nM and 523 nM.
With `CN(C)CC1CCN(c2ccc(-c3ccc4ncc5nnc(C6CCOCC6)n5c4c3)cc2)CC1` [Example 53, N,N-dimethyl-1-(1-(4-(1-(tetrahydro-2H-pyran-4-yl)-[1,2,4]triazolo[4,3-a]quinoxalin-8-yl)phenyl)piperidin-4-yl)methanamine], on ATM enzyme (human), the inhibition at 1 µM turned out to be 77%. The concentration for half-maximal inhibition (IC50) in test [1] and in test [2] was over 100000 nM in each case.
As for `CN(C)CCC1CCN(c2ccc(-c3ccc4ncc5nnc(C6CCOCC6)n5c4c3)cc2)CC1` [Example 54, N,N-dimethyl-2-(1-(4-(1-(tetrahydro-2H-pyran-4-yl)-[1,2,4]triazolo[4,3-a]quinoxalin-8-yl)phenyl)piperidin-4-yl)ethan-1-amine], the inhibition at 1 µM on ATM enzyme (human) is 82%. Further, the concentration for half-maximal inhibition (IC50) in test [1] and in test [2] was over 100000 nM each time.
